One test concerns A2780cis cells. Nature of the test: γH2AX analysis, A2780cis. It counts as cell-based, human. The following applies: FEN1i plus cisplatin. As to the method: Graphical representation and statistical analysis of mean tail moment was performed in GraphPad Prism 6 (GraphPad, La Jolla, USA). All experiments were done in duplicate three times.
γH2AX FACS: For monitoring DNA double strand break accumulation by γH2AX FACS, 1.05×104 Cells/cm2 were seeded in 6-well plates and left overnight at 37°C in a 5% CO 2 atmosphere. Cisplatin (5µM) or FEN1i (10µM) was later added to cells and incubated for 24h and 48h at 37°C in a 5% CO2 atmosphere. Cells were collected by trypsinization, washed […]
with ice cold PBS and fixed in 70% ethanol for 1h at -20°C. After removal of the fixative solution by centrifugation, cells were stained with 2 µg/ml of phospho-Histone (γH2AX) Ser139 (16202A, Millipore, UK) to detect DSBs.
Cell cycle progression: Cells were treated with 20 µg/ml RNase A (12091021, Invitrogen) and then 10 µg/ml Propidium Iodide (P4170, Sigma Aldrich) was added to determine the cell cycle distribution. The samples were analysed on a Beckman-Coulter FC500 flow cytometer using a 488nm laser for excitation and emission data for PI collected using a 620nm bandpass filter (FL3) and a 525nm bandpass filter (FL1) for FITC-anti-phospho-Histone H2A.X. […]
Graphical representation and statistical analysis was performed in GraphPad Prism 7 (GraphPad, La Jolla, USA). […]

Test [1] deals with T1, Recombinant human FEN1 protein (Homo sapiens, UniProt P39748).
T1 construct: made in house
T1 sequence (P39748 whole entry): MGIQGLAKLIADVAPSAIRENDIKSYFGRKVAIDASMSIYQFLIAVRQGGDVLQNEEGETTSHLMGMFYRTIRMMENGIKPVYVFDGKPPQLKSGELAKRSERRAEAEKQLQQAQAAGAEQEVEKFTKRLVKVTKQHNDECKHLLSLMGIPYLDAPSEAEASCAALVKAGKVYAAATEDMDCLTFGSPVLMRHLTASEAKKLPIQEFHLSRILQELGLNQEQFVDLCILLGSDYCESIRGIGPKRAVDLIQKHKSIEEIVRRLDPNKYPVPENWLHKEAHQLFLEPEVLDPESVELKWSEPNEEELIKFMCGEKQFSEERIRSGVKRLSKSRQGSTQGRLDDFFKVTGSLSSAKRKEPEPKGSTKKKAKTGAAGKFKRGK
Description: fluorescence-based HTS assay for FEN1 inhibitors. Particulars: dilution series on each screening plate. The class given is biochemical. As to the method: reactions containing 50 mM Tris pH 8.0, 10 mM MgCl2, 1 mM DTT and 0.01% Tween-20.
Reactions were incubated at 37 °C for 10 min. To inactivate the enzyme, an equal volume of
stop buffer (90% Formamide, 20 mM EDTA) was added and the mixture was heated at 95 °C
for 10 min. Following separation on a 15% polyacrylamide-urea denaturing gel, substrate
and product bands were visualized by a Typhoon Trio+ Variable Model Imager (Amersham
Bioscience/GE Healthcare, Piscataway, NJ), and the signals were quantified using
ImageQuant software (Molecular Dynamics, GE Healthcare).
Development of HTS assay to isolate novel FEN1 inhibitors: To facilitate the search for
novel FEN1 inhibitors, we have developed a fluorogenic donor/quencher reporter pair to
monitor generation of reaction product in real time (28) (Supplementary Figure S4A ).
Recombinant human FEN1 protein was purified from bacteria as described previously (27).
All oligodeoxynucleotides were purchased from Biosearch Technologies, Inc., (Novato, CA,
USA). The double-stranded DNA substrate containing a double flap region used in the […]
BHQ-2 quencher (which absorbs 6-TAMRA fluorescence when in close proximity) is lost,
and FEN1 activity is measured indirectly as an increase in fluorescence signal (Figure 3).
Kinetic fluorescence data were collected on ViewLux high-throughput CCD imager (Perkin […]
by absence of fluorescence. […]

Another test relates to FEN1. On the set-up: method as in PMID 21062821. Particulars: read-out: IC50 for FEN1 inhibition; cited from earlier work.
The subject of another test is A2780 cells. Nature of the test: Clonogenic assay, A2780. It counts as cell-based, human. The method, then:
Clonogenic assay: In the clonogenic assay (colony formation assays), 32 cells/cm2 were seeded in 6-well plates and left at 37°C in a 5% CO2 atmosphere. Cisplatin (5µM) and/or FEN1i (10µM) and/or Importazole (5 µM, Selleckem, S8446 ) were added at the indicated concentrations and the plates were left at 37 °C in a 5% CO 2 atmosphere for 14 days. Later, the plates were washed with PBS, fixed and stained with a crystal violet, acetic acid and methanol solution and colonies were counted. […]

These results are taken from publication PMC8070745, “FEN1 Blockade for Platinum Chemo-Sensitization and Synthetic Lethality in Epithelial Ovarian Cancers” (Cancers, 2021).

Take `Cc1csc2c1c(=O)n(O)c(=O)n2-c1ccccc1` [PTPD, 3-hydroxy-5-methyl-1-phenylthieno [2,3 d]pyrimidine-2,4(1H,3H)-dione]: the γH2AX nuclear foci result with A2780cis cells was “induced nuclear γH2AX nuclear foci accumulation”. The “inhibition pattern of control dilution series in the screen” value in test [1] is “uniform inhibition pattern”. Besides, the half-maximal inhibitory concentration (IC50) in the test with FEN1 was 22 nM.

With `N.N.[Cl][Pt][Cl]` [cisplatin], the cisplatin sensitivity entry with A2780 cells was “cisplatin-sensitive”.

As a reminder, the IC50 is the concentration that inhibits the measured activity by half.
